Laboratory results as given in patent publication US11207312B2, “Metallo-beta-lactamase inhibitors and methods of use thereof” (priority 2017, dated 2021).

What was measured:
IMP-1 = IMP-1 (Serratia marcescens, UniProt P52699); experiment: biochemical; conditions: CCF2-FA fluorescence assay, 2 hours at 25° C.; read-out: IMP1 IC50
Method: (§1) The Class B enzyme activities were measured in the presence of the test inhibitor in a fluorescence assay against a commercially available substrate consisting of a cephalosporin core linking 7-hydroxycoumarin to fluorescein (CCF2-FA). The enzyme (NDM-1, IMP-1 or VIM-1) and the substrate were diluted in 100 mM KH2PO4 buffer (pH 7) containing 0.005% Tween-20 and 10 μM ZnSO4. In the assay, the final concentration of enzyme was 1 pM, 2 pM and 30 pM for NDM-1, IMP-1 and VIM-1, respectively, and the final concentration of CCF2-FA was 1.25 μM. The test inhibitor was dissolved in dimethylsulfoxide and diluted 1:50 in the assay, resulting in a final concentration range of 20 μM to 0.00063 μM. In a 384-well microplate, the test inhibitor was incubated with the metallo-β-lactamase enzyme and the substrate for 2 hours at 25° C. Fluorescence at 460 nm following excitation at 405 nm was measured. The IC50 value was determined from semi-logarithmic plots of enzyme inhibition versus inhibitor concentration, with a curve generated using a 4-parameter fit.

VIM-1 = VIM-1 (Pseudomonas aeruginosa (strain ATCC 15692 / DSM 22644 / CIP 104116 / JCM 14847 / LMG 12228 / 1C / PRS 101 / PAO1), UniProt A0A0F7KYQ8); experiment: biochemical; conditions: CCF2-FA fluorescence assay, 2 hours at 25° C.; read-out: VIM1 IC50
Method: as §1

VIM-2 = VIM-2 (Escherichia coli, UniProt Q5U7L7); experiment: biochemical; conditions: CCF2-FA fluorescence assay; read-out: VIM2 IC50
[1] = tested on: Escherichia coli expressing NDM-1 (CLB30016); format: cell-based; conditions: with imipenem 1 μg/ml; 95% inhibition of bacterial growth
Method: (§2) The bacterial strains tested included the clinical strains Escherichia coil expressing NDM-1 (CLB30005, CLB30016), Serratia marcescens expressing IMP-1 (CL5741), and Klebsiella pneumoniae expressing VIM-1 (H-LMA599644). Inhibitor activity was measured in the presence and absence of imipenem in a 384-well microplate.
(§3) The clinical strains CLB30016, CL5741 and IHMA599644 were grown on trypticase soy agar containing 5% sheep's blood. The bacteria on agar plates were incubated at 35° C. with humidity overnight. The following day, individual colonies from each clinical strain were picked and resuspended in 5 ml saline to attain an OD600 of […], for CLB30016, C15741 and IHMA599644, respectively. These were further diluted 1:100 into 1.1× CAMHB and used to inoculate the test wells as described below.
(§4) Imipenem in 10 mM 3-(N-morpholino)propanesulfonic acid (MOPS, pH 7) was stored in single use aliquots at −80° C. […] On the day of the assay, 4 μl of antibiotic was added to 45 μl of bacteria followed by 1 μl of test compound and mixed by pipetting and with an orbital shaker. The concentration of antibiotic used in the assay was 1 μg/ml. Microplates were covered and incubated at 35° C. for 22 hours to 24 hours. At the end of the incubation, absorbance was determined using a spectrophotometer. The synergistic concentration of MBLI was determined by identifying the lowest concentration of test compound in the presence of a given concentration of antibiotic that was required to inhibit 95% of the growth of the bacteria. The results for Examples 1-209 are reported in Table 1, expressed as the concentration of compound that potentiated the action of antibiotic (imipenem) affecting 95% inhibition of bacterial growth (MITC95).

[2] = tested on: Klebsiella pneumoniae expressing VIM-1 (IHMA599644); format: cell-based; conditions: with imipenem 1 μg/ml; 95% inhibition of bacterial growth
Method: as §2, §3, §4

[3] = tested on: Serratia marcescens expressing IMP-1 (CL5741); format: cell-based; conditions: with imipenem 1 μg/ml; 95% inhibition of bacterial growth
Method: as §2, §3, §4

[4] = tested on: P. aeruginosa MB9798 (efflux+, IMP-1 plasmid); conditions: for MB9798 MITC95 P. aeruginosa uM Efflux WT: efflux + (MB9798) strain, imipenem at 2 μg/mL, in the presence of a class A, C, D serine β-lactamase inhibitor closely related to relebactam; for Efflux ratio: fold difference between efflux+ (MB9798) and efflux− (MB9799) strains
From the text: (§5) The strain background is Pseudomonas aeruginosa PAO1. A wild-type (M135919) and an isogenic strain in which multiple efflux pumps have been disrupted genetically were used. The MBL IMP-1, obtained from a clinical isolate was introduced into the strain pair by the following process:
(§6) The plasmid DNA was transformed into parental MB5919 (oprD+, efflux+, inducible AmpC) and MB5890 (oprD+, efflux−, inducible AmpC) isogenic strains by electroporation.
(§7) The strain set was then used as a pair to determine the effect of metallo-β-lactamase inhibitors of Formula I on the MIC of imipenem and/or ceftazidime. A fixed concentration of antibiotic is included in standard microbroth MIC tests, usually at the CLSI breakpoint concentration, A fixed amount of a class A/C beta-lactamase inhibitor is also included to inhibit the resident Pseudomonas AmpC enzyme. A serial titration of the metallo-β-lactamase inhibitor was included and the concentration of metallo-β-lactamase inhibitor which restores susceptibility of the strain to the included antibiotic was recorded. That concentration of metallo-β-lactamase inhibitor was then compared between the two strains to determine the fold difference between the efflux+(MB9798) and efflux−(MI39799) strains, which indicates the extent to which the MBLi is subject to efflux.

[5] = tested on: P. aeruginosa MB9799 (efflux-, IMP-1 plasmid); format: cell-based, Pseudomonas aeruginosa; conditions: efflux − (MB9799) strain; imipenem at 2 μg/mL; in the presence of a class A, C, D serine β-lactamase inhibitor closely related to relebactam
From the text: as §5, §6, §7

NDM-1 = NDM-1 (Klebsiella pneumoniae, UniProt C7C422); experiment: biochemical; format: biochemical; conditions: CCF2-FA fluorescence assay, 2 hours at 25° C.
Method: as §1

IMP-1, sequence (P52699 whole entry, looked up, species assumed): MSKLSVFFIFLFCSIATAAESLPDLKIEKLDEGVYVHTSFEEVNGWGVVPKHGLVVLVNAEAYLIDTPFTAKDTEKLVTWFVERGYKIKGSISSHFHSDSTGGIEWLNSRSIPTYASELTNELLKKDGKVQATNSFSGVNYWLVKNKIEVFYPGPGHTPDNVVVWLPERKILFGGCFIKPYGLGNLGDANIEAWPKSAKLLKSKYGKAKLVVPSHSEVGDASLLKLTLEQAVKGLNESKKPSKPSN
NDM-1, sequence (C7C422 whole entry, looked up, species assumed): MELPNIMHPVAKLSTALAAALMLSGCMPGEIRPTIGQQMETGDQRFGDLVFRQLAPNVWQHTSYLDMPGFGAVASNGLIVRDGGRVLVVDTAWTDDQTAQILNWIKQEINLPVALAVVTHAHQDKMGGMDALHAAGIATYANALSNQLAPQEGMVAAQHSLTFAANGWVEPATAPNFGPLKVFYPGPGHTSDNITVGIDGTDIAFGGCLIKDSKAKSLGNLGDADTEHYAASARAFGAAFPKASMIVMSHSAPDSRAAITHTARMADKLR

Compound	IC50 (IMP-1)	IC50 (VIM-1)	IC50 (VIM-2)	CLB30016 E. coli MITC95 NDM [1]	IHMA599644 K. pneumoniae MITC95 VIM [2]	CL5741 S. marcescens MITC95 IMP [3]	MB9798 MITC95 P. aeruginosa uM Efflux WT [4]	Efflux ratio [4]	MB9799 MITC95 P. aeruginosa uM Efflux Mutant [5]	IC50 (NDM-1)
NC[C@@H](O)CNS(=O)(=O)c1ccc(N2CC[C@@H](N)[C@@H](F)C2)c(-c2nn[nH]n2)c1S(N)(=O)=O (single isomer, unassigned) [Example 1]	5.02 nM	0.31 nM	3.58 nM	0.10 µM	0.39 µM	0.20 µM	0.78 µM	2.00	0.39 µM	–
NCCS(=O)(=O)c1ccc(N2CCCCC2)c(-c2nnn[nH]2)c1S(N)(=O)=O [Example 14]	1.34 nM	0.73 nM	–	0.78 µM	2.34 µM	2.34 µM	12.50 µM	16.00	0.78 µM	3.94 nM
NCCS(=O)(=O)c1ccc(N2CCOCC2)c(-c2nnn[nH]2)c1S(N)(=O)=O [Example 15]	6.5 nM	2.51 nM	–	1.56 µM	3.13 µM	3.13 µM	12.50 µM	8.00	1.56 µM	11.5 nM
NC[C@@H](O)CNS(=O)(=O)c1ccc(N2CCC3(CC2)CNC(=O)OC3)c(-c2nn[nH]n2)c1S(N)(=O)=O [Example 26, (R)-N^1-(3-amino-2-hydroxypropyl)-4-(3-oxo-2-oxa-4,9-diazaspiro[5.5]undecan-9-yl)-3-(2H-tetrazol-5-yl)benzene-1,2-disulfonamide]	1.02 nM	0.63 nM	2.74 nM	12.50 µM	12.50 µM	6.25 µM	6.25 µM	2.00	3.13 µM	–
N[C@@H]1CCCN(c2ccc(S(=O)(=O)C3CNC3)c(S(N)(=O)=O)c2-c2nnn[nH]2)C1 [Example 28, (R)-3-(3-aminopiperidin-1-yl)-6-(azetidin-3-ylsulfonyl)-2-(1H-tetrazol-5-yl)benzenesulfonamide]	463 nM	37.2 nM	–	0.78 µM	1.56 µM	6.25 µM	50.00 µM	8.00	6.25 µM	61.9 nM
N[C@H]1CCCN(c2ccc(S(=O)(=O)C3CNC3)c(S(N)(=O)=O)c2-c2nnn[nH]2)C1 [Example 29, (S)-3-(3-aminopiperidin-1-yl)-6-(azetidin-3-ylsulfonyl)-2-(1H-tetrazol-5-yl)benzenesulfonamide]	229 nM	9.45 nM	–	1.56 µM	0.78 µM	6.25 µM	25.00 µM	8.00	3.13 µM	86 nM
NS(=O)(=O)c1c(S(=O)(=O)C2CNC2)ccc(N2CCC3(CCNCC3)CC2)c1-c1nnn[nH]1 [Example 30, 6-(azetidin-3-ylsulfonyl)-3-(3,9-diazaspiro[5.5]undecan-3-yl)-2-(1H-tetrazol-5-yl)benzenesulfonamide]	5.2 nM	2.01 nM	–	0.78 µM	1.56 µM	1.56 µM	1.56 µM	2.00	0.78 µM	2.62 nM
NC1CCCN(c2ccc(S(=O)(=O)C3CNC3)c(S(N)(=O)=O)c2-c2nnn[nH]2)CC1 (stereo not drawn) [Example 32, 3-(4-aminoazepan-1-yl)-6-(azetidin-3-ylsulfonyl)-2-(1H-tetrazol-5-yl)benzenesulfonamide]	191 nM	2.14 nM	–	6.25 µM	1.56 µM	3.13 µM	12.50 µM	4.00	3.13 µM	122 nM
NC1CCCCN(c2ccc(S(=O)(=O)C3CNC3)c(S(N)(=O)=O)c2-c2nnn[nH]2)C1 (stereo not drawn) [Example 33, 3-(3-aminoazepan-1-yl)-6-(azetidin-3-ylsulfonyl)-2-(1H-tetrazol-5-yl)benzenesulfonamide]	137 nM	4.43 nM	–	1.56 µM	0.78 µM	3.13 µM	25.00 µM	8.00	3.13 µM	110 nM
NC[C@@H](O)CNS(=O)(=O)c1ccc(N2CC[C@H](CN)C2)c(-c2nn[nH]n2)c1S(N)(=O)=O [Example 124, N1-((R)-3-amino-2-hydroxypropyl)-4-((R)-3-(aminomethyl)pyrrolidin-1-yl)-3-(2H-tetrazol-5-yl)benzene-1,2-disulfonamide]	23.1 nM	3.18 nM	37.2 nM	0.39 µM	0.78 µM	0.78 µM	3.13 µM	2.00	1.56 µM	–
NS(=O)(=O)c1ccc(N2CCC3(CCNCC3)C2=O)c(-c2nn[nH]n2)c1S(N)(=O)=O [Example 134, 4-(1-oxo-2,8-diazaspiro[4.5]decan-2-yl)-3-(2H-tetrazol-5-yl)benzene-1,2-disulfonamide]	480 nM	62.9 nM	–	6.25 µM	6.25 µM	12.50 µM	50.00 µM	8.00	6.25 µM	182 nM
